Assays:
[1] = Prodrug stability in human liver S9; type: in vitro ADME; conditions: Human Liver S9 (0.5 mg/mL), 2.0 μM, NADPH, 37° C.
Protocol: (§1) The stabilities of prodrugs were evaluated in one or more in vitro systems using a variety of tissue preparations following methods known in the art. The chemical stability of prodrugs in aqueous buffers at pH's of 2.0, 7.4 and 8.0 were also measured. […] Each preparation was incubated with test compound at 37° C. for one hour. Aliquots (50 μL) were removed at 0, 30, and 60 min and quenched with 0.1% trifluoroacetic acid in acetonitrile. Samples were then centrifuged and analyzed by LC/MS/MS (see Example 86 below for method details).

[2] = Prodrug stability in human plasma in vitro; type: in vitro ADME; conditions: 2.0 μM, 37° C.
Protocol: as §1

[3] = Prodrug stability in rat liver S9; type: in vitro ADME; conditions: Rat Liver S9 (0.5 mg/mL), 2.0 μM, NADPH, 37° C.
Protocol: as §1

[4] = Chemical stability of prodrugs in aqueous buffers; type: physicochemical
Protocol: as §1

pancreatin = assay: Pancreatin stability; type: in vitro ADME, porcine; conditions: 1% (w/v) pancreatin, 5 μM, pH 7.5, 37° C.
Protocol: Pancreatin Stability: Stability studies were conducted by incubating prodrug (5 μM) with 1% (w/v) pancreatin (Sigma, P-1625, from porcine pancreas) in 0.025 M Tris buffer containing 0.5 M NaCl (pH 7.5) at 37° C. for 60 min. The reaction was stopped by addition of 2 volumes of methanol. After centrifugation at 14,000 rpm for […], the supernatant was removed and analyzed by LC/MS/MS.

[5] = Caco-2 homogenate S9 stability; type: in vitro ADME; conditions: Caco-2 S9 (0.5 mg protein per mL), 5 μM, 37° C.
Protocol: Caco-2 Homogenate S9 Stability: Caco-2 cells were grown for 21 days prior to harvesting. Culture medium was removed and cell monolayers were rinsed and scraped off into ice-cold 10 mM sodium phosphate/0.15 M potassium chloride, pH 7.4. Cells were lysed by sonication at 4° C. using a probe sonicator. Lysed cells were then transferred into 1.5 mL centrifuge vials and centrifuged at 9000 g for 20 min at 4° C. The resulting supernatant (Caco-2 cell homogenate S9 fraction) was aliquoted into 0.5 mL vials and stored at −80° C. until used.
For stability studies, prodrug (5 μM) was incubated in Caco-2 homogenate S9 fraction (0.5 mg protein per mL) for 60 min at 37° C. Concentrations of intact prodrug and released baclofen were determined at zero time and 60 minutes using LC/MS/MS.

[6] = Prodrug stability in rat plasma in vitro; type: in vitro ADME; conditions: 2.0 μM, 37° C.
Protocol: as §1

SMILES | % of Baclofen Released after 60 min [1] | % of Prodrug Remaining after 60 min [1] | % of Baclofen Released after 60 min [2] | % of Baclofen Released after 60 min [3] | % of Prodrug Remaining after 60 min [3] | % of Baclofen Released after 60 min ([4]; aqueous buffer pH 2.0, 37° C.) | % of Baclofen Released after 60 min ([4]; aqueous buffer pH 7.4, 37° C.) | % of Prodrug Remaining after 60 min ([4]; aqueous buffer pH 7.4, 37° C.) | % of Baclofen Released after 60 min ([4]; aqueous buffer pH 8.0, 37° C.) | % of Prodrug Remaining after 60 min ([4]; aqueous buffer pH 8.0, 37° C.) | % of Baclofen Released after 60 min (pancreatin) | % of Baclofen Released after 60 min [5] | % of Prodrug Remaining after 60 min [5] | % of Prodrug Remaining after 60 min ([4]; aqueous buffer pH 2.0, 37° C.) | % of Prodrug Remaining after 60 min (pancreatin) | % of Baclofen Released after 60 min [6] | % of Prodrug Remaining after 60 min [6]
CC(C)C(=O)O[C@H](C)OC(=O)NC[C@H](CC(=O)[O-])c1ccc(Cl)cc1.[Na+] [(34), Sodium 4-{[(1S)-Isobutanoyloxyethoxy]carbonylamino}-(3R)-(4-chlorophenyl)-butanoate] | 100% | 3% | 2% | 100% | 1% | 0% | 0% | 100% | 0% | 100% | 18% | 100% | 2% | – | – | – | –
CC(C)C(=O)O[C@@H](OC(=O)NC[C@H](CC(=O)[O-])c1ccc(Cl)cc1)C(C)C.[Na+] [(92), Sodium 4-{[(1S)-Isobutanoyloxyisobutoxy]carbonylamino}-(3R)-(4-chlorophenyl)-butanoate] | 80% | 4% | 1% | – | 6% | 0% | 0% | – | 1% | – | 7% | – | – | – | – | – | –
CC(OC(=O)NC[C@H](CC(=O)[O-])c1ccc(Cl)cc1)OC(=O)C(C)C.[Na+] (stereo partly drawn) [(33), Sodium 4-[(1-Isobutanoyloxyethoxy)carbonylamino]-(3R)-(4-chlorophenyl)-butanoate] | 101% | 3% | 4% | 101% | 4% | 0% | 0% | – | 0% | – | – | – | 3% | – | – | – | –
CCOC(C)(OCC)C(=O)OCOC(=O)NC[C@H](CC(=O)[O-])c1ccc(Cl)cc1.[Na+] [(51), Sodium 4-[(2,2-Diethoxypropanoyloxymethoxy)carbonylamino]-(3R)-(4-chlorophenyl)-butanoate] | 91% | 6% | – | – | 2% | 0% | 2% | – | 9% | – | 50% | 100% | 3% | – | – | – | –
CCCC(=O)OC(OC(=O)NC[C@H](CC(=O)[O-])c1ccc(Cl)cc1)C(C)C.[Na+] (stereo partly drawn) [(27), Sodium 4-[(1-Butanoyloxyisobutoxy)carbonylamino]-(3R)-(4-chlorophenyl)-butanoate] | – | 8% | 12% | – | 0% | 0% | 0% | – | 1% | – | 9% | – | – | – | – | – | –
CC(=O)OC(OC(=O)NC[C@H](CC(=O)[O-])c1ccc(Cl)cc1)C(C)C.[Na+] (stereo partly drawn) [(23), Sodium 4-[(1-Acetoxyisobutoxy)carbonylamino]-(3R)-(4-chlorophenyl)-butanoate] | – | 4% | 3% | – | 3% | 0% | 1% | – | 2% | – | – | – | – | 107% | – | – | –
O=C([O-])C[C@@H](CNC(=O)OCOC(=O)C1CCCCC1)c1ccc(Cl)cc1.[Na+] [(14), Sodium 4-[(Cyclohexanecarboxymethoxy)carbonylamino]-(3R)-(4-chlorophenyl)-butanoate] | – | 2% | – | – | 2% | 1% | 1% | – | 2% | 102% | – | – | 2% | – | 2% | – | –
CC(=O)OCOC(=O)NC[C@H](CC(=O)[O-])c1ccc(Cl)cc1.[Na+] [(10), Sodium 4-[(Acetoxymethoxy)carbonylamino]-(3R)-(4-chlorophenyl)-butanoate] | – | 1% | – | – | 0% | 1% | 3% | – | 9% | – | – | – | 2% | – | – | – | –
CCC[C@H](OC(=O)NC[C@H](CC(=O)[O-])c1ccc(Cl)cc1)OC(=O)C(C)C.[Na+] [(91), Sodium 4-{[(1S)-Isobutanoyloxybutoxy]carbonylamino}-(3R)-(4-chlorophenyl)-butanoate] | – | 1% | 2% | – | – | 0% | 0% | – | 1% | – | 78% | – | 6% | – | – | – | –
CC(C)(C)C(=O)OCOC(=O)NC[C@H](CC(=O)[O-])c1ccc(Cl)cc1.[Na+] [(20), Sodium 4-[(Pivaloyloxymethoxy)carbonylamino]-(3R)-(4-chlorophenyl)-butanoate] | – | 1% | 9% | – | – | 0% | 0% | 100% | 0% | – | – | 100% | 1% | 100% | – | 8% | –
CC(C)CC(=O)OCOC(=O)NC[C@H](CC(=O)[O-])c1ccc(Cl)cc1.[Na+] [(59), Sodium 4-[(3-Methylbutanoyloxymethoxy)carbonylamino]-(3R)-(4-chlorophenyl)-butanoate] | – | 1% | – | 85% | 2% | 0% | 1% | 103% | 2% | – | – | – | 3% | – | – | – | 2%
O=C([O-])C[C@@H](CNC(=O)OCOC(=O)c1ccccc1)c1ccc(Cl)cc1.[Na+] [(12), Sodium 4-[(Benzoyloxymethoxy)carbonylamino]-(3R)-(4-chlorophenyl)-butanoate] | 100% | 1% | 5% | – | 3% | 0% | 0% | 100% | 0% | – | – | 100% | 2% | 100% | – | – | –
O=C([O-])C[C@@H](CNC(=O)OCOC(=O)c1cccs1)c1ccc(Cl)cc1.[Na+] [(57), Sodium 4-[(2-Thienylcarbonyloxymethoxy)carbonylamino]-(3R)-(4-chlorophenyl)-butanoate] | – | 1% | – | – | 2% | 0% | 0% | 100% | 0% | 100% | – | – | 2% | – | – | – | –
CC(OC(=O)NC[C@H](CC(=O)[O-])c1ccc(Cl)cc1)OC(=O)c1ccccc1.[Na+] (stereo partly drawn) [(40), Sodium 4-[(1-Benzoyloxyethoxy)carbonylamino]-(3R)-(4-chlorophenyl)-butanoate] | – | 1% | 2% | – | 8% | 0% | 0% | – | 2% | – | – | – | – | – | – | – | –
CC(C)C(=O)O[C@@H](OC(=O)NC[C@H](CC(=O)O)c1ccc(Cl)cc1)C(C)C [(104)] | 97% | 3% | 2% | – | 3% | 0% | 0% | 100% | 0% | 100% | 6% | – | – | – | 90% | – | –
CC(C)C(OC(=O)NC[C@H](CC(=O)[O-])c1ccc(Cl)cc1)OC(=O)C(C)(C)C.[Na+] (stereo partly drawn) [(43), Sodium 4-[(1-Pivaloyloxyisobutoxy)carbonylamino]-(3R)-(4-chlorophenyl)-butanoate] | – | – | 2% | – | 3% | 0% | 0% | – | 0% | – | 4% | – | – | – | – | – | –
CC(C)C(=O)OC(OC(=O)NC[C@H](CC(=O)[O-])c1ccc(Cl)cc1)C1CCCCC1.[Na+] (stereo partly drawn) [(84), Sodium 4-[(1-Isobutanoyloxy-1-cyclohexylmethoxy)carbonylamino]-(3R)-(4-chlorophenyl)-butanoate] | – | 2% | 4% | 91% | 4% | 0% | 0% | – | 1% | – | – | – | – | – | – | – | –
